Test results from patent US20220257595A1, “MACITENTAN FOR USE IN TREATING PORTOPULMONARY HYPERTENSION” (ACTELION PHARMACEUTICALS LTD, priority 2019, published 2022).

System: patients with PoPH
Test: PORTICO safety: treatment-emergent AEs, SAEs, AESIs, deaths, discontinuations
Type: in vivo
Excerpt: For the evaluation of treatment-emergent safety endpoints in the DB phase, the observation period for each individual subject started at the time of the first administration of macitentan or placebo and ended with the start of OL treatment or 30 days after DB treatment discontinuation (whichever occurred first). The safety variables listed below apply to the DB treatment-emergent period and the macitentan treatment-emergent period. The DB treatment-emergent period was defined as the period from the DB treatment start date up to the EOT-DB+30 days or to the EOT-DB for patients entering OL. The macitentan treatment-emergent period was defined as the period from the first intake of macitentan up to end of macitentan treatment (EOMT)+30 days. EOMT was defined as EOT-DB (for patient who received macitentan only in the DB period) or EOT-OL when applicable. For patients entering OLE, the EOMT is EOT-OL. • Treatment-emergent AEs • Treatment-emergent deaths • Treatment-emergent serious adverse events (SAEs) • AEs leading to premature discontinuation of study treatment • Occurrence of post-baseline LFT (ALT and/or AST) abnormalities, classified as: • ≥3×ULN; • ≥5×ULN; • ≥8×ULN; • ≥3×ULN and <5×ULN; • […] and <8×ULN. • Occurrence of post-baseline ALT and/or AST abnormality 3×ULN and concomitant (i.e., at the same time) total bilirubin ≥2×ULN • Occurrence of post-baseline ALT and/or AST abnormality ≥3×ULN and concomitant (i.e., at the same time) total bilirubin ≥2×ULN and increased as compared to baseline • Occurrence of hemoglobin abnormalities, classified as: • ≤80 g/L, • >80 and ≤100 g/L, • decrease from baseline ≥20 g/L and <50 g/L, • decrease from baseline ≥50 g/L, • <100 g/L and concurrent (i.e., at the same time) decrease from baseline ≥20 g/L. • Other treatment-emergent marked laboratory abnormalities • Change from baseline/macitentan baseline to EOT-DB/EOMT in vital signs • Change from baseline/macitentan baseline to EOT-DB/EOMT in laboratory variables • Change from baseline/macitentan baseline to EOT-DB/EOMT in Child-Pugh classification • Change from baseline/macitentan baseline to EOT-DB/EOMT in MELD score
(i) Adverse events: All AEs occurring after study start (i.e., signing of informed consent) and up to 30 days after study treatment discontinuation were required to be recorded. AEs still ongoing more than 30 days after study treatment discontinuation were required to be followed up until they were no longer considered clinically relevant.
(ii) Serious adverse events, including associated with study design or protocol-mandated procedures: During the screening period, all SAEs occurring after study start (i.e., signing of informed consent) were required to be recorded (whether considered associated or not associated to study design or study-mandated procedures). All SAEs, regardless of investigator-attributed causal relationship, occurring during the treatment period up to the end of the 30-day follow up period, were required to be reported. SAEs still ongoing at the EOS visit were required to be followed up until resolution or stabilization, or until the event outcome was provided, e.g., death. New SAEs occurring after the 30-day follow-up period were required to be reported within 24 hours.
In addition, the following adverse events of special interest (AESIs) were analyzed: • “Edema and fluid retention”
Any treatment-emergent AE with PT listed in the Standardised MedDRA Query (SMQ) “Haemodynamic oedema, effusions and fluid overload (SMQ)” or with PT equal to “Pulmonary congestion” defined in the latest available MedDRA version, with the exception of PTs containing “site”. • “Anemia”

[1] = DB phase, Safety set, 10 mg, N = 43
[2] = DB phase, macitentan group (6 patients)
[3] = DB phase, macitentan group, 7 patients
[4] = OL phase, Macitentan treated set, N = 84
[5] = macitentan DB + OL phase, Macitentan treated set, N = 84

Structure (SMILES): CCCNS(=O)(=O)Nc1ncnc(OCCOc2ncc(Br)cn2)c1-c1ccc(Br)cc1 [macitentan, N-[5-(4-Bromophenyl)-6-[2-[(5-bromo-2-pyrimidinyl)oxy]ethoxy]-4-pyrimidinyl]-N′-propylsulfamide]
- AEs that occurred more frequently than in the placebo group (DB phase): peripheral edema/peripheral swelling, bronchitis and decreased hemoglobin/anemia
- Deaths (DB phase): no deaths
- AE leading to premature discontinuation of study treatment, Alveolitis [1]: 1 (2.3) n (%)
- AE leading to premature discontinuation of study treatment, Anaemia [1]: 1 (2.3) n (%)
- AE leading to premature discontinuation of study treatment, Hypersensitivity [1]: 1 (2.3) n (%)
- AE leading to premature discontinuation of study treatment, Pulmonary arterial hypertension [1]: 1 (2.3) n (%)
- AE of special interest Anemia, Pancytopenia [1]: 0 n (%)
- AE of special interest Hepatic disorders, Blood bilirubin increased [1]: 0 n (%)
- AE of special interest Hepatic disorders, Gamma-glutamyltransferase increased [1]: 0 n (%)
- Subjects with at least one AE [1]: 36 (83.7) n (%)
- Subjects with at least one AE leading to study drug discontinuation [1]: 4 (9.3) n (%)
- Subjects with at least one Drug-Related AE [1]: 19 (44.2) n (%)
- Subjects with at least one Drug-Related serious AE [1]: 5 (11.6) n (%)
- Subjects with at least one Fatal serious AE [1]: 0 n (%)
- Subjects with at least one Serious AE [1]: 9 (20.9) n (%)
- Subjects with at least one Severe AE [1]: 7 (16.3) n (%)
- Treatment-emergent AE, Abdominal pain [1]: 2 (4.7) n (%)
- Treatment-emergent AE, Acute kidney injury [1]: 2 (4.7) n (%)
- Treatment-emergent AE, Back pain [1]: 2 (4.7) n (%)
- Treatment-emergent AE, Bronchitis [1]: 4 (9.3) n (%)
- Treatment-emergent AE, Cough [1]: 0 n (%)
- Treatment-emergent AE, Diarrhoea [1]: 1 (2.3) n (%)
- Treatment-emergent AE, Dizziness [1]: 2 (4.7) n (%)
- Treatment-emergent AE, Dry mouth [1]: 1 (2.3) n (%)
- Treatment-emergent AE, Dyspnoea [1]: 1 (2.3) n (%)
- Treatment-emergent AE, Fall [1]: 2 (4.7) n (%)
- Treatment-emergent AE, Foot fracture [1]: 1 (2.3) n (%)
- Treatment-emergent AE, Headache [1]: 7 (16.3) n (%)
- Treatment-emergent AE, Hypokalaemia [1]: 2 (4.7) n (%)
- Treatment-emergent AE, Hypotension [1]: 2 (4.7) n (%)
- Treatment-emergent AE, Muscle spasms [1]: 0 n (%)
- Treatment-emergent AE, Nausea [1]: 1 (2.3) n (%)
- Treatment-emergent AE, Pain in extremity [1]: 2 (4.7) n (%)
- Treatment-emergent AE, Presyncope [1]: 2 (4.7) n (%)
- Treatment-emergent AE, Rhinitis [1]: 2 (4.7) n (%)
- Treatment-emergent AE, Right ventricular failure [1]: 3 (7.0) n (%)
- Treatment-emergent AE, Tachycardia [1]: 2 (4.7) n (%)
- Treatment-emergent AE, Urinary tract infection [1]: 2 (4.7) n (%)
- Treatment-emergent AE, Viral upper respiratory tract infection [1]: 2 (4.7) n (%)
- Treatment-emergent SAE, Acute kidney injury [1]: 1 (2.3) n (%)
- Treatment-emergent SAE, Alveolitis [1]: 1 (2.3) n (%)
- Treatment-emergent SAE, Aneurysm repair [1]: 0 n (%)
- Treatment-emergent SAE, Ascites [1]: 1 (2.3) n (%)
- Treatment-emergent SAE, Asthma [1]: 1 (2.3) n (%)
- Treatment-emergent SAE, Atrial fibrillation [1]: 1 (2.3) n (%)
- Treatment-emergent SAE, Fluid overload [1]: 1 (2.3) n (%)
- Treatment-emergent SAE, Haemoptysis [1]: 1 (2.3) n (%)
- Treatment-emergent SAE, Hepatic encephalopathy [1]: 1 (2.3) n (%)
- Treatment-emergent SAE, Hepatocellular carcinoma [1]: 1 (2.3) n (%)
- Treatment-emergent SAE, Hypersensitivity [1]: 1 (2.3) n (%)
- Treatment-emergent SAE, Ileus [1]: 1 (2.3) n (%)
- Treatment-emergent SAE, Left ventricular failure [1]: 1 (2.3) n (%)
- Treatment-emergent SAE, Localised infection [1]: 0 n (%)
- Treatment-emergent SAE, Localised oedema [1]: 1 (2.3) n (%)
- Treatment-emergent SAE, Lung infection [1]: 1 (2.3) n (%)
- Treatment-emergent SAE, Oedema peripheral [1]: 1 (2.3) n (%)
- Treatment-emergent SAE, Presyncope [1]: 1 (2.3) n (%)
- Treatment-emergent SAE, Pulmonary arterial hypertension [1]: 1 (2.3) n (%)
- Treatment-emergent SAE, Pulmonary toxicity [1]: 1 (2.3) n (%)
- Treatment-emergent SAE, Right ventricular failure [1]: 2 (4.7) n (%)
- Treatment-emergent SAE, Syncope [1]: 1 (2.3) n (%)
- Treatment-emergent SAE, Troponin I increased [1]: 1 (2.3) n (%)
- Treatment-emergent SAE, Urosepsis [1]: 1 (2.3) n (%)
- Treatment-emergent SAE, Vascular procedure complication [1]: 0 n (%)
- Anemia AE cases leading to discontinuation of study treatment (DB phase, macitentan group): 1 case
- Edema/fluid retention SAEs (in one patient: peripheral edema, localized edema, fluid overload) (DB phase, macitentan group): 3 SAEs
- Patients who discontinued treatment due to AEs (DB phase, macitentan group): 4 patients
- Patients who had SAEs (DB phase, macitentan group): 20.9%
- Patients with hepatic disorder SAEs (DB phase, macitentan group): 3 patients
- Patients with anemia AEs [2]: 14.0%
- Patients with hepatic disorder AEs [2]: 14.0%
- Patients with edema and fluid retention AEs (DB phase, macitentan group (13 patients)): 30.2%
- Peripheral edema considered related to study treatment (DB phase, macitentan group, 4 patients): 9.3%
- Headache considered related to study treatment [3]: 16.3%
- Patients with severe AEs [3]: 16.3%
- Deaths considered related to macitentan treatment by the investigator (OL and OLE): None of the deaths were considered by the investigator to be related
- Patients who died (OL phase): 4 patients
- Reason for death, Hepatocellular Carcinoma [4]: 1 (1.2) n (%)
- Reason for death, Pneumonia [4]: 1 (1.2) n (%)
- Reason for death, Pulmonary Arterial Hypertension [4]: 1 (1.2) n (%)
- Reason for death, Subdural Haematoma [4]: 1 (1.2) n (%)
- Total deaths [4]: 4 (4.8) n (%)
- Macitentan-treated patients who died (across OL phase (and after end of its follow-up) and ongoing OLE phase): 7 patients
- AE leading to premature discontinuation of study treatment, Alveolitis [5]: 1 (1.2) n(%)
- AE leading to premature discontinuation of study treatment, Anaemia [5]: 2 (2.4) n(%)
- AE leading to premature discontinuation of study treatment, Ascites [5]: 1 (1.2) n(%)
- AE leading to premature discontinuation of study treatment, Diarrhoea [5]: 1 (1.2) n(%)
- AE leading to premature discontinuation of study treatment, Hypersensitivity [5]: 1 (1.2) n(%)
- AE leading to premature discontinuation of study treatment, Liver function test increased [5]: 1 (1.2) n(%)
- AE leading to premature discontinuation of study treatment, Oedema peripheral [5]: 2 (2.4) n(%)
- AE leading to premature discontinuation of study treatment, Pneumonia [5]: 1 (1.2) n(%)
- AE leading to premature discontinuation of study treatment, Pulmonary arterial hypertension [5]: 1 (1.2) n(%)
- AEs leading to premature discontinuation of study treatment, Subjects with at least one AE [5]: 10 (11.9) n(%)
- AEs of special interest Anemia, Anaemia postoperative [5]: 1 (1.2) n (%)
- AEs of special interest Anemia, Haematocrit decreased [5]: 1 (1.2) n (%)
- AEs of special interest Anemia, Subjects with atleast one AE [5]: 22 (26.2) n (%)
- AEs of special interest Edema and fluid retention, Fluid overload [5]: 1 (1.2) n (%)
- AEs of special interest Edema and fluid retention, Fluid retention [5]: 1 (1.2) n (%)
- AEs of special interest Edema and fluid retention, Generalised oedema [5]: 1 (1.2) n (%)
- AEs of special interest Edema and fluid retention, Joint swelling [5]: 1 (1.2) n (%)
- AEs of special interest Edema and fluid retention, Localised oedema [5]: 1 (1.2) n (%)
- AEs of special interest Edema and fluid retention, Peripheral swelling [5]: 2 (2.4) n (%)
- AEs of special interest Edema and fluid retention, Subjects with atleast one AE [5]: 26 (31.0) n (%)
- AEs of special interest Edema and fluid retention, Swelling [5]: 1 (1.2) n (%)
- AEs of special interest Hepatic disorders, Ammonia increased [5]: 2 (2.4) n (%)
